Assay: gradient 5% acetonitrile 3 min, to 50% in 2 min, to 85% in 15 min, held 3 min, 100 µL/min
Conditions: column: Zorbax Extend-C18 2.1 x 50 mm; eluents: water / acetonitrile, 0.1% formic acid
How it was run: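 Pure standards were analyzed in mixtures of ~100 molecules using HPLC coupled to a quadrupole time-of-flight mass spectrometer, in both positive and negative ionization mode. Separation used a Zorbax Extend-C18 column (2.1 × 50 mm, 1.8 μm) at 100 μL/min, with water and acetonitrile each containing 0.1% formic acid. Dead and dwell volumes were 40 μL and 900 μL, and data were collected over 3 months. Retention time was read from computationally picked adduct peaks, each inspected manually.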

Structure (SMILES) | RP-LC retention time
Cc1cc(C)n2c(Nc3ccc4c(c3)OCCO4)c(-c3ccc(Cl)cc3)nc2n1 | 746 s
O=S(=O)(c1cc(-c2nnc(-c3ccc(F)cc3)o2)ccc1Cl)N1CCOCC1 | 984 s
COCCN(Cc1ccco1)c1nc(-c2ccc(OC)cc2)nc2ccccc12 | 792 s
CCCC(=O)Nc1ccc2c(c1)CN(C(=O)c1ccccc1Cl)C(C(=O)N(C)C)C2 (stereo not given) | 707 s
CCn1cc(-c2ccncc2)cc1C(=O)NCc1ccc(SC)cc1 | 689 s
CN1C(=O)Cc2cc(NC(=O)c3ccc(C(F)(F)F)cc3)ccc21 | 748 s
Cc1ccc2c(c1)N(S(C)(=O)=O)CCC(C(=O)NC1CCCCCCC1)O2 (stereo not given) | 1050 s
CCOC(=O)c1[nH]c(C)c(CCC(=O)N2CCC(C(=O)N3CCCC3)CC2)c1C | 687 s
Cc1ccc(C(=O)Nc2ccc(N3CCN(C4CCCC4)C3=O)nc2)cc1 | 888 s
CCCCN1N=C(C(=O)N2CCCCCC2)S(=O)(=O)c2ccc(C)cc21 | 1050 s
CCCCN1CC(=O)N(c2cccc(Cl)c2)[C@@H]2CS(=O)(=O)C[C@@H]21 | 790 s
CCCn1cc(C2=CCN(S(=O)(=O)c3cccc(C(F)(F)F)c3)CC2)c2cccnc21 | 1180 s
O=C(Cc1ccc(F)cc1)N1CCN(CC(O)c2cccs2)CC1 (stereo not given) | 569 s
CC1=C(c2ccc(Cl)cc2)S(=O)(=O)N=C1N1CCCN(C(=O)c2ccoc2)CC1 | 825 s
CCCNC(=O)N1c2ccccc2CC1c1nc(C(C)C)no1 (stereo not given) | 910 s
CC(C)c1nncn1C1CCN(S(=O)(=O)c2ccccc2F)CC1 | 692 s
Cc1cc(F)ccc1NS(=O)(=O)c1cc2c(s1)CCN(C(=O)C1CC1)C2 | 839 s
CCNC(=O)c1nc(C(=O)NCc2ccc(F)cc2)cs1 | 751 s
Cc1ccc(CNC(=O)N(C)CC2CCOC2)cc1 (stereo not given) | 575 s
c1cncc(-c2n[nH]c(C3CCCN(Cc4ccsc4)C3)n2)c1 (stereo not given) | 552 s
Cc1ccc(-n2nc(N3CCCC(C(=O)NCCC4=CCCCC4)C3)ccc2=O)cc1Cl (stereo not given) | 1060 s
O=C(NC1CCN(c2cc(-c3ccc(F)cc3)[nH]n2)C1)c1ccc(Br)cc1 (stereo not given) | 864 s
O=C(Cn1cccc1-c1nc(-c2ccc3c(c2)OCO3)no1)NC1CCCCC1 | 1030 s

Structure (SMILES) | RP-LC retention time
Cc1ccc(C)c(NC(=O)N2CCN(c3nc(C)cc(N(C)C)n3)CC2)c1 | 572 s
Cc1cccc(-c2noc(-c3nn(CC(=O)NC4CC4)c4ccccc34)n2)c1 | 1040 s
O=C(c1ccc2ccccc2n1)N1CC2CN(S(=O)(=O)c3ccccc3)CC(C1)O2 | 769 s
CCn1c(=O)c2cc(C(=O)NCc3ccccc3C(F)(F)F)nn2c2ccccc21 | 1000 s
Cc1ccc(-c2cn3c(CC(=O)NCc4ccccc4C)csc3n2)cc1C | 859 s
Cn1c(=O)oc2cc(-c3noc(-c4ccccc4Br)n3)ccc21 | 1070 s
CCOC(=O)c1noc2ncnc(Nc3ccc(CN4CCN(CC)CC4)cc3)c12 | 638 s
O=c1n(Cc2cccc(Cl)c2)nc2c(S(=O)(=O)N3CCOCC3)cccn12 | 1320 s
COc1ccc(-c2csc(NC(=O)c3ccc([N+](=O)[O-])cc3)n2)cc1 | 1070 s
Cc1ccc(-c2ncc(C#N)c(=O)n2CC(=O)NCc2ccccc2Br)cc1 | 1010 s
CC(=O)Nc1ccc(-n2cnc(C(=O)N3CCN(C4CCCCC4)CC3)c2)nc1 | 566 s
CC(C)C(=O)Nc1cnc(-c2cccc(Cl)c2)nc1 | 975 s
COc1ccc(NC(=O)N2CCCC(C)(C(=O)NCc3ccccc3)C2)c(OC)c1 (stereo not given) | 846 s
CCN1CCCn2cc(S(=O)(=O)Nc3cccc(OC)c3)cc2C1=O | 698 s
COCCNC(=O)c1ccc(-c2ccc(N3CCSCC3)nc2)cc1 | 624 s
O=C(NCc1cccc(F)c1)N1CCC(OC2CCN(Cc3ccccc3)CC2)CC1 | 589 s
O=C(NCCCn1ncccc1=O)c1ccccc1C(F)(F)F | 635 s
CCOc1ccc(NC(=O)N2CCC(C(=O)NCc3csc(C)n3)CC2)cc1 | 652 s
O=C(Cc1nnc2c(-c3nc(C4CC4)no3)cccn12)NC1CCCCCC1 | 720 s
CCN(CC)c1nc2ccsc2c(=O)n1CCC(=O)NCc1ccc(F)cc1F | 848 s
O=C(c1ccsc1)N1CCCCC1c1nncn1Cc1ccccc1 (stereo not given) | 726 s
Cc1c(C2CCN(C(=O)NCc3ccccc3)CC2)noc1N | 639 s
Cc1ccc(C(=O)Nc2nc(-c3ccc4c(c3)N(C)C(=O)CO4)c(C)s2)cc1 | 1030 s

Structure (SMILES) | RP-LC retention time
Cc1ccc2c(=O)c3c([nH]c2c1C)CCN(CC(=O)Nc1cccc(Cl)c1)C3 | 640 s
CN1CCN(c2ccc(Nc3cc(-c4cccc(-n5ccc6cc(C7CC7)cc(F)c6c5=O)c4CO)cn(C)c3=O)nc2)CC1 | 702 s
Cc1cccc2nc(-c3c(F)cccc3Cl)c(Nc3ccc4c(c3)OCO4)n12 | 697 s
O=C(NCc1ccccc1)C1CCN(c2ccc(SCc3ccccc3)nn2)CC1 | 761 s
COc1ccc(CC(=O)N2CCC(c3nncn3C(C)C)CC2)cc1 | 622 s
Cn1cc(C(=O)NCc2ccc(F)cc2)c2cccnc21 | 721 s
COCC1CN(S(=O)(=O)Cc2cccc(F)c2)CC12CCNCC2 (stereo not given) | 623 s
CCOC(=O)c1ccc(NC(=O)Nc2cccs2)cc1 | 888 s
Cc1cc(Cl)ccc1OCc1nc(-c2ccc(NS(C)(=O)=O)cc2)no1 | 1060 s
Cc1ccc(N2C(=O)N(Cc3ccccc3)S(=O)(=O)c3cccnc32)cc1F | 1100 s
NC(=O)C1CCN(C(=O)CN2CCN(c3cccc(Cl)c3)CC2)CC1 | 600 s
CCC(=O)Nc1ccc(C2(C(=O)NCC3CC3)CCCCC2)cc1 | 825 s
COc1ccccc1-c1nc(-c2ccc3nnn(C(C)C)c3c2)no1 | 962 s
Cc1cc(S(=O)(=O)N2CC(c3nc(-c4ncccn4)no3)C2)c(Cl)cc1Cl | 834 s
O=S(=O)(NCc1ccc(F)cc1Cl)c1c[nH]c2ncccc12 | 748 s
CCc1ccc(NS(=O)(=O)c2cc(-c3cc(C(F)(F)F)on3)sc2C)cc1 | 1230 s
Cc1ccc(NC(=O)c2c(O)c3cccnc3n(-c3ccc(F)cc3)c2=O)cc1F | 1340 s
O=C(Nc1nc(-c2ccccn2)cs1)c1ccc(N2CCOCC2)c([N+](=O)[O-])c1 | 631 s
O=C(NC1CCS(=O)(=O)C1)C1CCN(S(=O)(=O)c2cccs2)CC1 (stereo not given) | 616 s
CCOC(=O)COC(=O)c1cn(-c2cccc(OC)c2)c(=O)c2ccccc12 | 1010 s
COc1ccc(CSc2nnc3c(S(=O)(=O)N4CCCC4)cccn23)cc1F | 825 s
Cc1sc(C)c(S(=O)(=O)Nc2ccccc2F)c1-c1cc(C(F)(F)F)on1 | 1130 s
O=C(NCCCn1nc(-c2ccc(Cl)cc2)ccc1=O)C1CCCC1 | 798 s

Structure (SMILES) | RP-LC retention time
CCOC(=O)c1noc2nc(C)nc(Nc3cccc(C)c3)c12 | 1170 s
O=C(Cc1ccc(Cl)cc1)N1CC(Cc2nncn2CC2CC2)C1 | 686 s
CCOc1ccccc1OCC(=O)c1ccc(O)cc1O | 794 s
O=C(CCc1nc2ccccc2n(CC(=O)Nc2cc(F)ccc2F)c1=O)NCc1ccccc1 | 884 s
CN1C(=O)c2cccn2CC1CNS(=O)(=O)Cc1ccccc1F (stereo not given) | 670 s
Cc1oc2c(c1C(=O)Nc1cccc(C(F)(F)F)c1)C1=NCCN1C=N2 | 652 s
O=C(Cn1ncc2c3ccccc3n(Cc3ccccc3F)c2c1=O)N1CCN(c2ccccn2)CC1 | 699 s
O=C(COc1ccccc1F)Nc1ccc(Cl)c(N2CCCS2(=O)=O)c1 | 791 s
COc1ccc(OC)c(NC(=O)Cn2c(=O)n(-c3ccc(C)cc3)c3ncccc32)c1 | 896 s
O=C(Nc1cnc(-c2ccccc2)nc1)c1ccc(Br)o1 | 979 s
CCNc1cc(N2CCC(CCC(=O)NCc3ccc(F)cc3)CC2)ncn1 | 574 s
Cc1ccc(Cn2c(N3CCCC(C(=O)Nc4ccc(F)cc4)C3)nc3ccsc3c2=O)cc1 (stereo not given) | 1060 s
COc1cccc(CNC(=O)Cn2ncc3c(N4CCN(c5ccccn5)CC4)ncnc32)c1 | 598 s
CC1=C(c2ccccc2)S(=O)(=O)N=C1N1CCCN(C(=O)c2cccc(Cl)c2)CC1 | 862 s
CCOc1ccc(Cc2nc(-c3ccc4oc(CC)nc4c3)no2)cc1 | 1130 s
Cc1ccc(Cn2cc(-c3ccncc3)cc2C(=O)NCc2ccc(N(C)C)cc2)cc1 | 630 s
O=C(CCSc1ccccc1)NCC(c1ccco1)N1CCOCC1 (stereo not given) | 574 s
Nc1ncnc2c1cnn2C1CCCCC1 | 672 s
CCn1c(=O)c(N2CCN(C(=O)NC3CCCCC3)CC2)nc2ccccc21 | 919 s
CCn1c(CCNC(=O)c2ccc(OC)cc2)nc2cccnc21 | 607 s
Cc1cc(C(=O)Nc2ccc(F)c(F)c2)nc2cc(-c3ccco3)nn12 | 810 s

From the METLIN SMRT retention time set (Domingo-Almenara et al. 2019)
